In patent publication US20190359681A1, “NOVEL MINOR HISTOCOMPATIBILITY ANTIGENS AND USES THEREOF” (UNIVERSITÉ DE MONTRÉAL, priority 2015, published 2019):

test system: T cells from MiHA-negative individuals; test: Immunogenicity: T cells primed with MiHA-pulsed autologous dendritic cells, IFNγ ELISpot and intracellular cytokine staining; type: cell-based, human; conditions: T cells from four MiHA-negative individuals primed with autologous dendritic cells pulsed with synthetic MiHA; re-exposed to MiHA vs no peptide or irrelevant peptide
Procedure: Determination of the immunogenicity of the identified MiHAs. T cells and monocytes were purified from 100-150×10^6 PBMCs obtained from MiHA-negative individuals using MACS® cell separation columns (Miltenyi Biotec®) or EasySep™ kits (Stemcell Technologies®). Monocyte-derived dendritic cells were generated as previously described (3) and matured with GM-CSF, IL-4, PGE2, TNFα, IL-1β, IL-6 and IFNγ. These dendritic cells were then irradiated at 40 Gy and pulsed with 2 μg/mL of the synthetic MiHA peptide (GLRX3-1^S, WDR27-1^L, MIIP-2^E, or RASSF1-1^S) or an irrelevant peptide (Epstein-Barr virus LMP2^426-434) that was used a negative control. Pulsed or unpulsed dendritic cells were then co-cultured with previously enriched autologous T cells (5×10^5/well) in 48-well plates in advanced RPMI medium supplemented with 10% of human serum, 1% of L-Glutamine and 30 ng/mL of IL-21 at a 1:4 (stimulator:effector) ratio. Supplemented media with IL-7 and IL-15 was added after 3, 5 and 7 days of culture and cells were transferred in 12-well plates and 6-well plates at day 5 and 7, respectively. After 10 days of culture, T cells were harvested to determine antigen reactivity with ELISpot for IFNγ and polyfunctional intracellular cytokine staining. Briefly, ELISpot analysis was performed according to the manufacturer's instructions (MABtech®) and intracellular staining was performed after restimulation with 5 μg/mL of peptide in the presence of Brefeldin A for 4 hours. […] Acquisition was performed with a BD™ LSR II flow cytometer and data were analyzed using Flowlogic™ software (Inivai Technologies®).
As a proof of principle, the immunogenicity of four novel MiHAs was tested: GLRX3-1^S, MIIP-2^E, RASSF1-1^S and WDR27-1^L (FIGS. 3A-3D). […] Read-out of antigen-reactivity was assessed by ELISpot (FIG. 3A) and intracellular staining assays (FIGS. 3B-3D).

With EESAVPE/KRSW (EESAVPERSW) [MIIP-2^E] as the substance, how does the “cytokine production by primed T cells (antigen-reactivity by ELISpot and intracellular staining)” value (“cytokine production by primed T cells” below) read?
The value was “produced cytokines in a MiHA-specific fashion in all tested donors”.

How did the “cytokine production by primed T cells” value turn out when “FLS/PSANEHL [GLRX3-1^S, synthetic peptide tested for immunogenicity]” was run?
Its value is “produced cytokines in a MiHA-specific fashion in all tested donors”.

How did the “cytokine production by primed T cells” value turn out when S/AEIEQKIKEY (SEIEQKIKEY) [RASSF1-1^S] was run?
The value was “produced cytokines in a MiHA-specific fashion in all tested donors”.
